Experimental data published in patent publication US20110160196A1, “FACTOR XA INHIBITORS” (Millennium Pharmaceuticals, Inc., priority 2007, published 2011).

Biological target: T1, human plasma protein factor Xa (Homo sapiens, UniProt P00742)
T1 construct: The human plasma protein factor Xa was purchased; purchased Haematologic Technologies (Essex Junction, Vt.); host or cells: human plasma
Assay: Factor Xa IC50 determination (cleavage of paranitroanilide substrate S-2765)
Type: biochemical
Conditions: factor Xa 1 nM, S-2765 100 μM, Tris buffered saline pH 7.4, read at 405 nm
Method in brief: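 Human plasma factor Xa (1 nM) preincubated 5 min at room temperature with inhibitor (0.01 nM–10 μM) in Tris-buffered saline pH 7.4 with 5 mM CaCl2, 0.1% BSA, 5% DMSO. S-2765 added at 100 μM final; pNA release followed at 405 nm for 2 min. IC50 from four-parameter fit of initial velocities.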

T1 sequence (P00742 235-488 limits assumed): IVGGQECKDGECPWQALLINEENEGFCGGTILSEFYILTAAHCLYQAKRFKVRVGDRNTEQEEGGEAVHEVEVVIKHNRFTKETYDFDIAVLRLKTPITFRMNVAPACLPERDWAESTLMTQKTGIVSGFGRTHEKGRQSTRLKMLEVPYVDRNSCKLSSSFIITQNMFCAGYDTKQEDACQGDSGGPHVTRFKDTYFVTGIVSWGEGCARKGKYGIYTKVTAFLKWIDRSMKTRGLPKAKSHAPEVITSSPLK
T1 sequence (P00742 41-179 partner limits assumed): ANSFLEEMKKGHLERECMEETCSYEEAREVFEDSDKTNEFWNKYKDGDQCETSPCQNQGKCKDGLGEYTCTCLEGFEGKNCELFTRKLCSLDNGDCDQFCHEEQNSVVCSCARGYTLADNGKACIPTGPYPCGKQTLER

| IC50 | SMILES |
| --- | --- |
| ≤ 100 nM | CNc1cc(-c2cc(-n3ccccc3=O)ccc2-n2cc(CNC(=O)c3ccc(Cl)s3)nn2)ccn1 [Compound 141, 5-Chloro-N-((1-(2-(2-(methylamino)pyridin-4-yl)-4-(2-oxopyridin-1(2H)-yl)phenyl)-1H-1,2,3-triazol-4-yl)methyl)thiophene-2-carboxamide] |
| ≤ 100 nM | Cc1nc(COc2cc(-n3ccccc3=O)ccc2-n2cc(CNC(=O)c3ccc(Cl)s3)nn2)cs1 [Compound 172, 5-Chloro-N-((1-(2-((2-methylthiazol-4-yl)methoxy)-4-(2-oxopyridin-1(2H)-yl)phenyl)-1H-1,2,3-triazol-4-yl)methyl)thiophene-2-carboxamide] |
| ≤ 100 nM | Nc1ccc(-c2cc(-n3ccccc3=O)ccc2-n2cc(CNC(=O)c3ccc(Cl)s3)nn2)cn1 [Compound 144, N-((1-(2-(6-Aminopyridin-3-yl)-4-(2-oxopyridin-1(2H)-yl)phenyl)-1H-1,2,3-triazol-4-yl)methyl)-5-chlorothiophene-2-carboxamide] |
| ≤ 100 nM | NCc1cc(-n2ccccc2=O)ccc1-n1cc(CNC(=O)c2ccc(Cl)s2)nn1 [Compound 120, N-((1-(2-(Aminomethyl)-4-(2-oxopyridin-1(2H)-yl)phenyl)-1H-1,2,3-triazol-4-yl)methyl)-5-chlorothiophene-2-carboxamide] |
| ≤ 100 nM | O=C(NCc1cn(-c2ccc(N3CCCCC3=O)cc2N2CCS(=O)(=O)CC2)nn1)c1ccc(Cl)s1 [Compound 158, 5-Chloro-N-((1-(4-(2-oxopiperidin-1-yl)-2-((1,1-dioxo)thiomorpholino)phenyl)-1H-1,2,3-triazol-4-yl)methyl)thiophene-2-carboxamide] |
| ≤ 100 nM | O=C(NCc1cn(-c2ccc(-n3ccccc3=O)cc2OCc2ccccn2)nn1)c1ccc(Cl)s1 [Compound 169, 5-Chloro-N-((1-(4-(2-oxopyridin-1(2H)-yl)-2-(pyridin-2-ylmethoxy)phenyl)-1H-1,2,3-triazol-4-yl)methyl)thiophene-2-carboxamide] |
| ≤ 100 nM | CS(=O)(=O)c1cc(-n2ccccc2=O)ccc1-n1cc(CNC(=O)c2ccc(Cl)s2)nn1 [Compound 52, 5-Chloro-N-((1-(2-(methylsulfonyl)-4-(2-oxopyridin-1(2H)-yl)phenyl)-1H-1,2,3-triazol-4-yl)methyl)thiophene-2-carboxamide] |
| ≤ 100 nM | O=C(NCc1cn(-c2ccc(-n3ccccc3=O)cc2-c2ccncc2)nn1)c1ccc(Cl)s1 [Compound 125, 5-Chloro-N-((1-(4-(2-oxopyridin-1(2H)-yl)-2-(pyridin-4-yl)phenyl)-1H-1,2,3-triazol-4-yl)methyl)thiophene-2-carboxamide] |
| ≤ 100 nM | NC1CCN(c2cc(-n3ccccc3=O)ccc2-n2cc(CNC(=O)c3ccc(Cl)s3)nn2)CC1 [Compound 17, N-((1-(2-(4-Aminopiperidin-1-yl)-4-(2-oxopyridin-1(2H)-yl)phenyl)-1H-1,2,3-triazol-4-yl)methyl)-5-chlorothiophene-2-carboxamide] |
| ≤ 100 nM | Nc1cc(-c2cc(-n3ccccc3=O)ccc2-n2cc(CNC(=O)c3ccc(Cl)s3)nn2)ccn1 [Compound 139, N-((1-(2-(2-Aminopyridin-4-yl)-4-(2-oxopyridin-1(2H)-yl)phenyl)-1H-1,2,3-triazol-4-yl)methyl)-5-chlorothiophene-2-carboxamide] |
| ≤ 100 nM | NCCNc1cc(-n2ccccc2=O)ccc1-n1cc(CNC(=O)c2ccc(Cl)s2)nn1 [Compound 30, N-((1-(2-(2-Aminoethylamino)-4-(2-oxopyridin-1(2H)-yl)phenyl)-1H-1,2,3-triazol-4-yl)methyl)-5-chlorothiophene-2-carboxamide] |
| ≤ 100 nM | NCCSc1cc(-n2ccccc2=O)ccc1-n1cc(CNC(=O)c2ccc(Cl)s2)nn1 [Compound 53, N-((1-(2-(2-Aminoethylthio)-4-(2-oxopyridin-1(2H)-yl)phenyl)-lH-1,2,3-triazol-4-yl)methyl)-5-chlorothiophene-2-carboxamide] |
| ≤ 100 nM | O=C(NCc1cn(-c2ccc(-n3ccccc3=O)cc2OCCN2CCCC2)nn1)c1ccc(Cl)s1 [Compound 88, 5-Chloro-N-((1-(4-(2-oxopyridin-1(2H)-yl)-2-(2-(pyrrolidin-1-yl)ethoxy)phenyl)-1H-1,2,3-triazol-4-yl)methyl)thiophene-2-carboxamide] |
| ≤ 100 nM | CCS(=O)(=O)CCOc1cc(-n2ccccc2=O)ccc1-n1cc(CNC(=O)c2ccc(Cl)s2)nn1 [Compound 82, 5-Chloro-N-((1-(2-(2-(ethylsulfonyl)ethoxy)-4-(2-oxopyridin-1(2H)-yl)phenyl)-1H-1,2,3-triazol-4-yl)methyl)thiophene-2-carboxamide] |
| ≤ 100 nM | COCCN(C)c1cc(-n2ccccc2=O)ccc1-n1cc(CNC(=O)c2ccc(Cl)s2)nn1 [Compound 29, 5-Chloro-N-((1-(2-((2-mcthoxyethyl)(methyl)amino)-4-(2-oxopyridin-1(2H)-yl)phenyl)-1H-1,2,3-triazol-4-yl)methyl)thiophene-2-carboxamide] |
| ≤ 100 nM | O=C(NCc1cn(-c2ccc(-n3ccccc3=O)cc2N2CCCC2)nn1)c1ccc(Cl)s1 [Compound 3, 5-Chloro-N-((1-(4-(2-oxopyridin-1(2H)-yl)-2-(pyrrolidin-1-yl)phenyl)-1H-1,2,3-triazol-4-yl)methyl)thiophene-2-carboxamide] |
| ≤ 100 nM | O=C(NCc1cn(-c2ccc(-n3ccccc3=O)cc2OCc2ccncc2)nn1)c1ccc(Cl)s1 [Compound 167, 5-Chloro-N-((1-(4-(2-oxopyridin-1(2H)-yl)-2-(pyridin-4-ylmethoxy)phenyl)-1H-1,2,3-triazol-4-yl)methyl)thiophene-2-carboxamide] |
| ≤ 100 nM | CC(=O)N1CCN(c2cc(-n3ccccc3=O)ccc2-n2cc(CNC(=O)c3ccc(Cl)s3)nn2)CC1 [Compound 13, N-((1-(2-(4-Acetylpiperazin-1-yl)-4-(2-oxopyridin-1(2H)-yl)phenyl)-1H-1,2,3-triazol-4-yl)methyl)-5-chlorothiophene-2-carboxamide] |
| ≤ 100 nM | O=C(O)COc1cc(-n2ccccc2=O)ccc1-n1nnc(CNC(=O)c2ccc(Cl)s2)c1I [Compound 152, 2-(2-(4-((5-Chlorothiophene-2-carboxamido)methyl)-5-iodo-1H-1,2,3-triazol-1-yl)-5-(2-oxopyridin-1(2H)-yl)phenoxy)acetic acid] |
| 100 to 500 nM | O=C(NCc1cn(-c2ccc(-n3ccccc3=O)cc2C(=O)O)nn1)c1ccc(Cl)s1 [Compound 100, 2-(4-((2-Chlorothiophcne-5-carboxamido)methyl)-1H-1,2,3-triazol-1-yl)-5-(2-oxopyridin-1(2H)-yl)benzoic acid] |
| ≤ 100 nM | COCCOc1cc(-n2ccccc2=O)ccc1-n1cc(CNC(=O)c2ccc(Cl)s2)nn1 [Compound 76, 5-Chloro-N-((1-(2-(2-methoxyethoxy)-4-(2-oxopyridin-1(2H)-yl)phenyl)-1H-1,2,3-triazol-4-yl)methyl)thiophene-2-carboxamide] |
| ≤ 100 nM | O=C(NCc1cn(-c2ccc(-n3ccccc3=O)cc2N2CC[S+]([O-])CC2)nn1)c1ccc(Cl)s1 [Compound 11, 5-Chloro-N-((1-(4-(2-oxopyridin-1(2H)-yl)-2-((1-oxo-)thiomorpholino)phenyl)-1H-1,2,3-triazol-4-yl)methyl)thiophene-2-carboxamide] |
| 100 to 500 nM | COCCNC(=O)c1cc(-n2ccccc2=O)ccc1-n1cc(CNC(=O)c2ccc(Cl)s2)nn1 [Compound 106, N-((1-(2-((2-Methoxyethyl)carbamoyl)-4-(2-oxopyridin-1(2H)-yl)phenyl)-1H-1,2,3-triazol-4-yl)methyl)-5-chlorothiophene-2-carboxamide] |
| ≤ 100 nM | CN(C)c1ccc(-c2cc(-n3ccccc3=O)ccc2-n2cc(CNC(=O)c3ccc(Cl)s3)nn2)cn1 [Compound 145, 5-Chloro-N-((1-(2-(6-(dimethylamino)pyridin-3-yl)-4-(2-oxopyridin-1(2H)-yl)phenyl)-1H-1,2,3-triazol-4-yl)methyl)thiophene-2-carboxamide] |
